Experimental data published in ChEMBL document CHEMBL1129570, “2-(Hydroxyalkyl)estradiols: synthesis and biological evaluation” (J Med Chem, 1996).

Tests used:
[1] = target: T1, Estrogen receptor (Homo sapiens, UniProt Q92731+P03372); assay: Affinity estrogen receptor of MCF-7 human mammary cancer cells; assay type: cell-based; details: mcf7
[2] = target: T1, Estrogen receptor; assay: (§1) Induction of pS2 mRNA expression in human MCF-7 mammary carcinoma cells; assay type: functional, cell-based; details: mcf7
[3] = target: T1, Estrogen receptor; assay: as §1; assay type: functional, cell-based; details: mcf7; remark: listed apart in the source
[4] = target: T1, Estrogen receptor; assay: Affinity for estrogen receptor; assay type: protein assay

| Compound | EC50 [1] [nM] | EC50 [2] [nM] | EC50 [3] [nM] | EC50 [4] [nM] |
| --- | --- | --- | --- | --- |
| C[C@]12CC[C@@H]3c4cc(CCCO)c(O)cc4CC[C@H]3[C@@H]1CC[C@@H]2O | 5220 | 495 | 0.004 | – |
| C[C@]12CC[C@@H]3c4cc(CO)c(O)cc4CC[C@H]3[C@@H]1CC[C@@H]2O | 342 | 10.3 | 2.79 | 146 |
| C[C@]12CC[C@@H]3c4cc(C=O)c(O)cc4CC[C@H]3[C@@H]1CC[C@@H]2O | 782 | – | – | – |
| C[C@]12CC[C@@H]3c4cc(CCO)c(O)cc4CC[C@H]3[C@@H]1CC[C@@H]2O | 4890 | 272 | – | – |
| C[C@]12CC[C@@H]3c4cc(O)c(O)cc4CC[C@H]3[C@@H]1CC[C@@H]2O | 1660 | 504 | – | – |
